Data taken from the supplement of paper PMC11061612.

Assays:
[1] = compound: C[C@@H](Nc1cc(F)cc(F)c1)c1cc(C(=O)N(C)C)cc2c(=O)cc(N3CCOCC3)oc12 [AZD8186]
Procedure, shortened: (§1)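 After 24 hours at 37°C and 5% CO2 in 1536-well plates holding 7.5 μl of DMEM/F12 or RPMI with 10% FBS, cancer cell lines were dosed for 72 hours, with final DMSO typically 0.2%. Viability came from CellTiter-Glo 2.0 luminescence, scaled between the means of blank wells and DMSO wells. A non-linear mixed effects model fitted a two-parameter logistic curve to each dose response to give the single-agent IC50.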

[2] = compound: C=CCn1c(=O)c2cnc(Nc3ccc(N4CCN(C)CC4)cc3)nc2n1-c1cccc(C(C)(C)O)n1 [AZD1775]
Procedure, shortened: as §1

[3] = compound: C[C@@H](c1ccc2nccn2c1)n1nnc2ncc(-c3cnn(C)c3)nc21 [Savolitinib]; conditions: max 1 µM
Procedure, shortened: as §1

[4] = compound: CC(=O)Nc1cccc(-n2c(=O)n(C3CC3)c(=O)c3c(Nc4ccc(I)cc4F)n(C)c(=O)c(C)c32)c1 [Trametinib]; conditions: max 1 µM
Procedure, shortened: as §1

[5] = compound: CCN(CCO)CCCOc1ccc2c(Nc3cc(CC(=O)Nc4cccc(F)c4)[nH]n3)ncnc2c1 [AZD2811]; conditions: max 1 µM
Procedure, shortened: as §1

[6] = compound: CS(=O)(=O)CCNCc1ccc(-c2ccc3ncnc(Nc4ccc(OCc5cccc(F)c5)c(Cl)c4)c3c2)o1 [Lapatinib]; conditions: max 10 µM
Procedure, shortened: as §1

[7] = compound: CC(=O)c1c(C)c2cnc(Nc3ccc(N4CCNCC4)cn3)nc2n(C2CCCC2)c1=O [Palbociclib]; conditions: max 10 µM
Procedure, shortened: as §1

[8] = compound: COc1cccc(OCCCN)c1-c1cc(Nc2cnc(C#N)cn2)n[nH]1 [Prexasertib]; conditions: max 1 µM
Procedure, shortened: as §1

[9] = compound: N#Cc1cnc(Nc2cc(NC[C@H]3CNCCO3)c(C(F)(F)F)cn2)cn1 [SRA737]; conditions: max 10 µM
Procedure, shortened: as §1

[10] = compound: O=C(c1cc(Cc2n[nH]c(=O)c3ccccc23)ccc1F)N1CCN(C(=O)C2CC2)CC1 [Olaparib]; conditions: max 10 µM
Procedure, shortened: as §1

[11] = compound: COc1cc2ncnc(Nc3ccc(F)c(Cl)c3)c2cc1OCCCN1CCOCC1 [Gefitinib]; conditions: max 10 µM
Procedure, shortened: as §1

[12] = compound: C1CC(C1)(C(=O)[O-])C(=O)[O-].N.N.[Pt+2] [Carboplatin]; conditions: max 10 µM
Procedure, shortened: as §1

[13] = compound: CCc1c2c(nc3ccc(O)cc13)-c1cc3c(c(=O)n1C2)COC(=O)[C@]3(O)CC [SN-38]; conditions: max 0.3 µM
Procedure, shortened: as §1

[14] = compound: CC1=C(C(=CC=C1)Cl)NC(=O)C2=CN=C(S2)NC3=CC(=NC(=N3)C)N4CCN(CC4)CCO [Dasatinib]; conditions: max 2 µM
Procedure, shortened: as §1

[15] = compound: O=C(Nc1ccc2[nH]nc(-c3ccncc3)c2c1)[C@@H]1CCN(CC(=O)N2CCN(c3ccc(-c4ncccn4)cc3)CC2)C1; conditions: max 5 µM
Procedure, shortened: as §1

[16] = compound: NC1(c2ccc(-c3nc4ccn5c(=O)[nH]nc5c4cc3-c3ccccc3)cc2)CCC1 [MK-2206]; conditions: max 10 µM
Procedure, shortened: as §1

[17] = compound: COc1cccc2c1C(=O)c1c(O)c3c(c(O)c1C2=O)C[C@@](O)(C(=O)CO)C[C@@H]3O[C@H]1C[C@H](N)[C@H](O)[C@H](C)O1 [Doxorubicin]; conditions: max 1 µM
Procedure, shortened: as §1

[18] = compound: O=c1[nH]cc(F)c(=O)[nH]1 [5-Fluorouracil]; conditions: max 20 µM
Procedure, shortened: as §1

[19] = compound: Nc1ccn([C@@H]2O[C@H](CO)[C@@H](O)C2(F)F)c(=O)n1 [Gemcitabine]; conditions: max 0.3 µM
Procedure, shortened: as §1

[20] = compound: Cc1c2c(nn1C)CSCc1cc(n(C)n1)CSc1cc(c3ccccc3c1)OCCCc1c(C(=O)O)n(C)c3c-2c(Cl)ccc13 [AZD5991]; conditions: max 1 µM
Procedure, shortened: as §1

[21] = compound: COc1nnc2ccc(N3CCC(c4ccc(OCCN5CCN(C)C(=O)[C@H]5C)cc4)CC3)nn12 [AZD5153]; conditions: max 1 µM
Procedure, shortened: as §1

[22] = compound: C1CN(CCC1(C(=O)N[C@@H](CCO)C2=CC=C(C=C2)Cl)N)C3=NC=NC4=C3C=CN4 [AZD5363]; conditions: max 10 µM
Procedure, shortened: as §1

[23] = compound: C[C@@H]1COCCN1C2=NC(=NC(=C2)C3(CC3)[S@](=N)(=O)C)C4=C5C=CNC5=NC=C4 [AZD6738]; conditions: max 10 µM
Procedure, shortened: as §1

[24] = compound: CC1=CN2[C@@H](C1)C=NC3=CC(=C(C=C3C2=O)OC)OCCCCCOC4=C(C=C5C(=C4)N=C[C@@H]6CC(=CN6C5=O)C)OC [SG3199]; conditions: max 0.001 µM
Procedure, shortened: as §1

[25] = compound: COc1cc(Nc2ncc3c(n2)-c2ccc(Cl)cc2C(c2c(F)cccc2OC)=NC3)ccc1C(=O)O [Alisertib]; conditions: max 10 µM
Procedure, shortened: as §1

[26] = compound: COc1cc([C@@H]2c3cc4c(cc3[C@@H](O[C@@H]3O[C@@H]5CO[C@@H](C)O[C@H]5[C@H](O)[C@H]3O)[C@H]3COC(=O)[C@H]23)OCO4)cc(OC)c1O [Etoposide]; conditions: max 10 µM
Procedure, shortened: as §1

[27] = compound: Cc1nc(-c2cn3c(n2)-c2ccc(-c4cnn(C(C)(C)C(N)=O)c4)cc2OCC3)n(C(C)C)n1 [Taselisib]; conditions: max 10 µM
Procedure, shortened: as §1

[28] = compound: Cc1cc2ncnn2cc1Nc1ncc2c(n1)n(C1CCOCC1)c(=O)n2C [AZD7648]; conditions: max 10 µM
Procedure, shortened: as §1

[29] = compound: CC(C)n1c(=O)n(C)c2cnc3cc(F)c(-c4ccc(OCCCN5CCCCC5)nc4)cc3c21 [AZD1390]; conditions: max 0.3 µM
Procedure, shortened: as §1

[30] = compound: C[C@@H](Oc1cc(-c2cnn(C3CCNCC3)c2)cnc1N)c1c(Cl)ccc(F)c1Cl [Crizotinib]; conditions: max 10 µM
Procedure, shortened: as §1

[31] = compound: CC(=O)O[C@H]1C(=O)[C@@]2(C)[C@H]([C@H](OC(=O)c3ccccc3)[C@]3(O)C[C@H](OC(=O)[C@H](O)[C@@H](NC(=O)c4ccccc4)c4ccccc4)C(C)=C1C3(C)C)[C@]1(OC(C)=O)CO[C@@H]1C[C@@H]2O [Paclitaxel]; conditions: max 3 µM
Procedure, shortened: as §1

[32] = compound: CC1(C)CCC(CN2CCN(c3ccc(C(=O)NS(=O)(=O)c4ccc(NCC5CCOCC5)c([N+](=O)[O-])c4)c(Oc4cnc5[nH]ccc5c4)c3)CC2)=C(c2ccc(Cl)cc2)C1 [Venetoclax]; conditions: max 1 µM
Procedure, shortened: as §1

[33] = compound: CN(C)CCCOc1ccc(-c2ccc3ncc4c(c3c2)n(C2CCOCC2)c(=O)n4C)cn1 [AZD0156]
Procedure, shortened: as §1

[34] = compound: Cn1cnc2c(F)c(Nc3ccc(Br)cc3Cl)c(C(=O)NOCCO)cc21 [Selumetinib]; conditions: max 10 µM
Procedure, shortened: as §1

[35] = compound: C1CN(CCC1(C(=O)N[C@@H](CCO)C2=CC=C(C=C2)Cl)N)C3=NC=NC4=C3C=CN4 [Capivasertib]; conditions: max 10 µM
Procedure, shortened: as §1

[36] = compound: CN(CC[C@H](CSC1=CC=CC=C1)NC2=C(C=C(C=C2)S(=O)(=O)NC(=O)C3=CC=C(C=C3)N4CCC(CC4)[C@H](C5=CC=CC=C5C6=CC=C(C=C6)Cl)O)S(=O)(=O)C(F)(F)F)CCO [AZD4320]; conditions: max 1 µM
Procedure, shortened: as §1

Cell Line	IC50, cell viability 72 h ([1]; max 10 µM) [nM]	IC50, cell viability 72 h ([2]; max 3 µM) [nM]	IC50, cell viability 72 h [3] [nM]	IC50, cell viability 72 h [4] [nM]	IC50, cell viability 72 h [5] [nM]	IC50, cell viability 72 h [6] [µM]	IC50, cell viability 72 h [7] [µM]	IC50, cell viability 72 h [8] [nM]	IC50, cell viability 72 h [9] [µM]	IC50, cell viability 72 h [10] [µM]	IC50, cell viability 72 h [11] [µM]	IC50, cell viability 72 h [12] [µM]	IC50, cell viability 72 h [13] [nM]	IC50, cell viability 72 h [14] [nM]	IC50, cell viability 72 h [15] [nM]	IC50, cell viability 72 h [16] [µM]	IC50, cell viability 72 h [17] [nM]	IC50, cell viability 72 h [18] [µM]	IC50, cell viability 72 h [19] [nM]	IC50, cell viability 72 h [20] [nM]	IC50, cell viability 72 h [21] [nM]	IC50, cell viability 72 h [22] [µM]	IC50, cell viability 72 h [23] [µM]	IC50, cell viability 72 h [24] [nM]	IC50, cell viability 72 h [25] [µM]	IC50, cell viability 72 h [26] [µM]	IC50, cell viability 72 h [27] [µM]	IC50, cell viability 72 h [28] [µM]	IC50, cell viability 72 h [29] [nM]	IC50, cell viability 72 h [30] [µM]	IC50, cell viability 72 h [31] [nM]	IC50, cell viability 72 h [32] [nM]	IC50, cell viability 72 h ([33]; max 3 µM) [nM]	IC50, cell viability 72 h [34] [µM]	IC50, cell viability 72 h ([1]; max 3 µM) [nM]	IC50, cell viability 72 h [35] [µM]	IC50, cell viability 72 h [36] [nM]	IC50, cell viability 72 h ([2]; max 1 µM) [nM]	IC50, cell viability 72 h ([33]; max 1 µM) [nM]
LS-123 (Colorectal Carcinoma)	> 10000	2920	> 1000	395	> 1000	> 10	> 10	96.4	> 10	> 10	> 10	> 10	> 300	557	2730	> 10	611	> 20	> 300	> 1000	> 1000	> 10	> 10	> 1	> 10	> 10	1.94	> 10	> 300	> 10	1210	> 1000	> 3000	> 10	–	–	–	–	–
BFTC-909 (Kidney Carcinoma)	–	579	> 1000	> 1000	> 1000	> 10	> 10	24.7	–	> 10	> 10	–	38.7	> 2000	–	> 10	616	–	–	> 1000	909	–	3.46	> 1	7.72	–	3.93	> 10	> 300	> 10	–	> 1000	> 3000	> 10	> 3000	6.1	> 1000	–	–
SW1573 (Lung Adenocarcinoma)	–	> 3000	> 1000	> 1000	> 1000	> 10	> 10	> 1000	–	> 10	> 10	–	52.2	> 2000	–	–	> 1000	–	–	> 1000	> 1000	–	> 10	> 1	> 10	–	> 10	> 10	> 300	> 10	–	> 1000	> 3000	> 10	> 3000	> 10	> 1000	–	–
LCLC-97TM1 (Non-Small Cell Lung Carcinoma)	–	1380	> 1000	26.4	> 1000	> 10	> 10	28.3	–	> 10	> 10	–	75.6	> 2000	–	–	> 1000	–	–	> 1000	153	–	2.28	> 1	3.44	–	3.36	> 10	> 300	4.84	–	> 1000	> 3000	3.19	> 3000	> 10	> 1000	–	–
L-428 (Hodgkin's Lymphoma)	–	429	> 1000	> 1000	> 1000	> 10	> 10	23.3	–	> 10	> 10	–	46.9	> 2000	–	–	106	–	–	> 1000	130	–	5.4	> 1	> 10	–	> 10	> 10	> 300	> 10	–	> 1000	> 3000	> 10	> 3000	> 10	475	–	–
NCI-H2722 (Mesothelioma)	–	> 3000	> 1000	> 1000	> 1000	> 10	> 10	> 1000	–	> 10	> 10	–	> 300	> 2000	–	–	> 1000	–	–	> 1000	> 1000	–	> 10	> 1	> 10	–	> 10	> 10	> 300	> 10	–	> 1000	> 3000	> 10	> 3000	> 10	> 1000	–	–
FTC-133 (Thyroid Gland Carcinoma)	–	–	> 1000	> 1000	> 1000	> 10	> 10	29.2	–	> 10	> 10	–	6.51	> 2000	–	–	352	–	–	999	657	–	4.69	> 1	8.36	–	> 10	> 10	> 300	> 10	–	> 1000	–	> 10	> 3000	8.76	> 1000	968	> 1000
